ChEMBL document CHEMBL5543149, “Discovery of Novel Aryl Triazolone Dihydropyridines (ATDPs) Targeting Highly Conserved Residue W229 as Promising HIV-1 NNRTIs” (J Med Chem, 2024)
In brackets after ≈: the same amount, converted by molar mass.

Columns and labels:
[1] = tested on: Human immunodeficiency virus 1; assay: Antiviral activity against wild type HIV-1 IIIB infected in human MT4 cells assessed as protection against virus-induced cytopathic effect incubated for 5 days by MTT assay; format: functional, organism-based; settings: Human immunodeficiency virus 1, IIIB, MT4, 120 h
[2] = Cytotoxicity against human MT4 cells assessed as reduction in cell viability by MTT assay; format: toxicity, cell-based
[3] = Selectivity index, ratio of CC50 for cytotoxicity against human MT4 cells assessed as reduction in cell viability by MTT assay to EC50 for antiviral activity against wild type HIV-1 IIIB infected in human MT4 cells assessed as protection against virus-induced cytopathic effect; format: toxicity, cell-based; settings: read-out: Ratio CC50/EC50
[4] = tested on: Human immunodeficiency virus 1; assay: Antiviral activity against NNRTI-resistant HIV-1 harboring L100I mutant infected in human MT4 cells assessed as protection against virus-induced cytopathic effect by MTT assay; format: functional, organism-based; settings: Human immunodeficiency virus 1, MT4
[5] = tested on: Human immunodeficiency virus 1; assay: Antiviral activity against NNRTI-resistant HIV-1 harboring K103N mutant infected in human MT4 cells assessed as protection against virus-induced cytopathic effect by MTT assay; format: functional, organism-based; settings: Human immunodeficiency virus 1, MT4
[6] = tested on: Human immunodeficiency virus 1; assay: Antiviral activity against NNRTI-resistant HIV-1 harboring Y181C mutant infected in human MT4 cells assessed as protection against virus-induced cytopathic effect by MTT assay; format: functional, organism-based; settings: Human immunodeficiency virus 1, MT4
[7] = tested on: Human immunodeficiency virus 1; assay: Antiviral activity against NNRTI-resistant HIV-1 harboring Y188L mutant infected in human MT4 cells assessed as protection against virus-induced cytopathic effect by MTT assay; format: functional, organism-based; settings: Human immunodeficiency virus 1, MT4
[8] = tested on: Human immunodeficiency virus 1; assay: Antiviral activity against NNRTI-resistant HIV-1 harboring E138K mutant infected in human MT4 cells assessed as protection against virus-induced cytopathic effect by MTT assay; format: functional, organism-based; settings: Human immunodeficiency virus 1, MT4
[9] = tested on: Human immunodeficiency virus 1; assay: Antiviral activity against NNRTI-resistant HIV-1 harboring RES056 mutant infected in human MT4 cells assessed as protection against virus-induced cytopathic effect by MTT assay; format: functional, organism-based; settings: Human immunodeficiency virus 1, MT4
[10] = biological target: Human immunodeficiency virus type 1 reverse transcriptase (Human immunodeficiency virus 1, UniProt Q72547); assay: Inhibition of wild type HIV-1 Reverse transcriptase assessed as reduction of biotin-dUTP incorporation into […] using ABTS as substrate preincubated with compound for 1 hr followed by substrate addition in presence of biotin-labeled dNTPs by ELISA analysis
[11] = Solubility of compound at pH 2 incubated for 2 hrs by HPLC analysis; format: physicochemical; settings: buffer
[12] = Water solubility of compound at pH 7 incubated for 2 hrs by HPLC analysis; format: physicochemical
[13] = Water solubility of compound at pH 7.4 incubated for 2 hrs by HPLC analysis; format: physicochemical
[14] = Half life in Sprague-Dawley rat at 2 mg/kg, iv measured upto 24 hrs by LC-MS/MS analysis; format: ADME, organism-based; settings: in vivo
[15] = Half life in Sprague-Dawley rat at 10 mg/kg, po measured upto 24 hrs by LC-MS/MS analysis; format: ADME, organism-based; settings: in vivo
[16] = Tmax in Sprague-Dawley rat at 2 mg/kg, iv measured upto 24 hrs by LC-MS/MS analysis; format: ADME, organism-based; settings: in vivo
[17] = Tmax in Sprague-Dawley rat at 10 mg/kg, po measured upto 24 hrs by LC-MS/MS analysis; format: ADME, organism-based; settings: in vivo
[18] = Cmax in Sprague-Dawley rat at 2 mg/kg, iv measured upto 24 hrs by LC-MS/MS analysis; format: ADME, organism-based; settings: in vivo
[19] = Cmax in Sprague-Dawley rat at 10 mg/kg, po measured upto 24 hrs by LC-MS/MS analysis; format: ADME, organism-based; settings: in vivo
[20] = AUC (0 to t ) in Sprague-Dawley rat at 2 mg/kg, iv measured upto 24 hrs by LC-MS/MS analysis; format: ADME, organism-based; settings: in vivo
[21] = AUC (0 to t ) in Sprague-Dawley rat at 10 mg/kg, po measured upto 24 hrs by LC-MS/MS analysis; format: ADME, organism-based; settings: in vivo
[22] = AUC (0 to infinity) in Sprague-Dawley rat at 2 mg/kg, iv measured upto 24 hrs by LC-MS/MS analysis; format: ADME, organism-based; settings: in vivo
[23] = AUC (0 to infinity) in Sprague-Dawley rat at 10 mg/kg, po measured upto 24 hrs by LC-MS/MS analysis; format: ADME, organism-based; settings: in vivo
[24] = Clearance in Sprague-Dawley rat at 2 mg/kg, iv measured upto 24 hrs by LC-MS/MS analysis; format: ADME, organism-based; settings: in vivo
[25] = Oral bioavailability in Sprague-Dawley rat at 10 mg/kg measured upto 24 hrs by LC-MS/MS analysis; format: ADME, organism-based; settings: in vivo
[26] = tested on: Human immunodeficiency virus 1; assay: Antiviral activity against wild type HIV-1 infected in mouse harboring […] mutant at 10 mg/kg, po measured for 24 hrs; format: functional, organism-based; settings: Human immunodeficiency virus 1, 24 h
[27] = tested on: Human immunodeficiency virus 1; assay: Antiviral activity against wild type HIV-1 infected in mouse harboring RES056 mutant at 10 mg/kg, po measured for 24 hrs; format: functional, organism-based; settings: Human immunodeficiency virus 1, 24 h
[28] = tested on: Human immunodeficiency virus 1; assay: Antiviral activity against wild type HIV-1 infected in mouse at 10 mg/kg, po measured for 24 hrs; format: functional, organism-based; settings: Human immunodeficiency virus 1, 24 h
[29] = tested on: Human immunodeficiency virus 1; assay: Antiviral activity against wild type HIV-1 infected in mouse harboring L100I mutant at 10 mg/kg, po measured for 24 hrs; format: functional, organism-based; settings: Human immunodeficiency virus 1, 24 h
[30] = tested on: Human immunodeficiency virus 1; assay: Antiviral activity against wild type HIV-1 infected in mouse harboring K103N mutant at 10 mg/kg, po measured for 24 hrs; format: functional, organism-based; settings: Human immunodeficiency virus 1, 24 h
[31] = tested on: Human immunodeficiency virus 1; assay: Antiviral activity against wild type HIV-1 infected in mouse harboring Y181C mutant at 10 mg/kg, po measured for 24 hrs; format: functional, organism-based; settings: Human immunodeficiency virus 1, 24 h
[32] = tested on: Human immunodeficiency virus 1; assay: Antiviral activity against wild type HIV-1 infected in mouse harboring E138K mutant at 10 mg/kg, po measured for 24 hrs; format: functional, organism-based; settings: Human immunodeficiency virus 1, 24 h
[33] = Acute toxicity in Kunming mouse assessed as behavioral abnormalities at 2000 mg/kg, po measured for 7 days; format: organism-based; settings: in vivo, 168 h, time 7 day
[34] = Acute toxicity in Kunming mouse assessed as change in body weight at 2000 mg/kg, po measured for 7 days; format: organism-based; settings: in vivo, 168 h, time 7 day
[35] = Subacute toxicity in Kunming mouse assessed as lethargy at 50 mg/kg, po administered every 2 days for 2 weeks; format: organism-based; settings: in vivo, 336 h
[36] = Subacute toxicity in Kunming mouse assessed as clonic convulsion at 50 mg/kg, po administered every 2 days for 2 weeks; format: organism-based; settings: in vivo, 336 h
[37] = Subacute toxicity in Kunming mouse assessed as anorexia at 50 mg/kg, po administered every 2 days for 2 weeks; format: organism-based; settings: in vivo, 336 h
[38] = Subacute toxicity in Kunming mouse assessed as ruffled fur at 50 mg/kg, po administered every 2 days for 2 weeks; format: organism-based; settings: in vivo, 336 h
[39] = Subacute toxicity in Kunming mouse assessed as heart damage at 50 mg/kg, po administered every 2 days for 2 weeks; format: organism-based; settings: in vivo, 336 h
[40] = Subacute toxicity in Kunming mouse assessed as liver damage at 50 mg/kg, po administered every 2 days for 2 weeks; format: organism-based; settings: in vivo, 336 h
[41] = Subacute toxicity in Kunming mouse assessed as spleen damage at 50 mg/kg, po administered every 2 days for 2 weeks; format: organism-based; settings: in vivo, 336 h
[42] = Subacute toxicity in Kunming mouse assessed as lung damage at 50 mg/kg, po administered every 2 days for 2 weeks; format: organism-based; settings: in vivo, 336 h
[43] = Subacute toxicity in Kunming mouse assessed as kidney damage at 50 mg/kg, po administered every 2 days for 2 weeks; format: organism-based; settings: in vivo, 336 h

Question: Which EC50 [1] does the source give for Cn1c(Cn2ccc(C(F)(F)F)c(Oc3cc(Cl)cc(-c4ccc(Br)cc4)c3)c2=O)n[nH]c1=O here?
Answer: The EC50 was 9 nM.

Question: And the CC50 [2]?
Answer: Its CC50 is 118000 nM.

Question: What about the selectivity ratio [3] of the same compound?
Answer: The selectivity ratio was 13100.

Question: What about the EC50 [4] of the same compound?
Answer: The EC50 was 11 nM.

Question: And the EC50 [5]?
Answer: Its EC50 is 13 nM.

Question: What about the EC50 [6] of the same compound?
Answer: Its EC50 is 18 nM.

Question: And the EC50 [7]?
Answer: Its EC50 is 703 nM.

Question: And the EC50 [8]?
Answer: Its EC50 is 13 nM.

Question: And the EC50 [9]?
Answer: The EC50 was 59 nM.

Question: And the IC50 [10]?
Answer: The IC50 was 40 nM.

Question: What about the solubility at 2 h [11] of the same compound?
Answer: Its solubility at 2 h is 107 µg/mL (≈ 193 µM).

Question: What about the solubility at 2 h [12] of the same compound?
Answer: Its solubility at 2 h is 45.7 µg/mL (≈ 82.2 µM).

Question: And the solubility at 2 h [13]?
Answer: Its solubility at 2 h is 32.2 µg/mL (≈ 57.9 µM).

Question: What about the half-life [14] of the same compound?
Answer: Its half-life is 4.49 h.

Question: What about the half-life [15] of the same compound?
Answer: Its half-life is 5.09 h.

Question: What about the Tmax [16] of the same compound?
Answer: The Tmax was 3 min.

Question: What about the Tmax [17] of the same compound?
Answer: The Tmax was 4 h.

Question: And the Cmax [18]?
Answer: The Cmax was 1950 ng/mL.

Question: And the Cmax [19]?
Answer: The Cmax was 3340 ng/mL.

Question: And the AUC(0-t) at 24 h [20]?
Answer: Its AUC(0-t) at 24 h is 5490 ng·h/mL.

Question: What about the AUC(0-t) at 24 h [21] of the same compound?
Answer: Its AUC(0-t) at 24 h is 39600 ng·h/mL.

Question: And the AUC(0-inf) [22]?
Answer: The AUC(0-inf) was 7670 ng·h/mL.

Question: What about the AUC(0-inf) [23] of the same compound?
Answer: The AUC(0-inf) was 41800 ng·h/mL.

Question: And the clearance [24]?
Answer: The clearance was 4.35 mL/min/kg.

Question: And the bioavailability [25]?
Answer: Its bioavailability is 109%.

Question: And the EC50 [26]?
Answer: Its EC50 is 703 nM.

Question: What about the EC50 [27] of the same compound?
Answer: The EC50 was 56 nM.

Question: What about the EC50 [28] of the same compound?
Answer: Its EC50 is 9 nM.

Question: What about the EC50 [29] of the same compound?
Answer: Its EC50 is 11 nM.

Question: What about the EC50 [30] of the same compound?
Answer: The EC50 was 13 nM.

Question: And the EC50 [31]?
Answer: Its EC50 is 16 nM.

Question: And the EC50 [32]?
Answer: Its EC50 is 13 nM.

Question: And the Activity [33]?
Answer: The Activity was “Non-Toxic”.

Question: And the Activity [34]?
Answer: Its Activity is “Non-Toxic”.

Question: And the Activity [35]?
Answer: The Activity was “Non-Toxic”.

Question: And the Activity [36]?
Answer: Its Activity is “Non-Toxic”.

Question: What about the Activity [37] of the same compound?
Answer: The Activity was “Non-Toxic”.

Question: What about the Activity [38] of the same compound?
Answer: The Activity was “Non-Toxic”.

Question: What about the Activity [39] of the same compound?
Answer: The Activity was “Non-Toxic”.

Question: What about the Activity [40] of the same compound?
Answer: The Activity was “Non-Toxic”.

Question: And the Activity [41]?
Answer: The Activity was “Non-Toxic”.

Question: And the Activity [42]?
Answer: Its Activity is “Non-Toxic”.

Question: And the Activity [43]?
Answer: Its Activity is “Non-Toxic”.
